{"source": "PubChem BioAssay AID1963973", "about": "(Molecular Pharmacology Branch, DTP, NCI, 2024)", "test_system": "883617-216-R-J1-PDC tumor spheroids, viability", "test": "Anticancer human tumor 883617-216-R-J1-PDC patient-derived bladder carcinoma cell line growth inhibition [PI3K]", "settings": "spheroids with HUVEC and MSC; for IC50: curve of first compound; for viability, T/C: stronger effect = lower value", "method_in_brief": "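Three cell types, namely tumor cells, endothelial cells and mesenchymal stem cells, formed each spheroid. Combinations with four PI3K inhibitors were screened at clinically achievable concentrations decreasing by half-log, and spheroid viability was recorded.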", "data": [{"compound": "CNC(=O)c1ccc(N2C(=S)N(c3ccc(C#N)c(C(F)(F)F)c3)C(=O)C2(C)C)cc1F", "note": "+ COc1c(OCCCN2CCOCC2)ccc2c3n(c(=NC(=O)c4cnc(N)nc4)nc12)CCN3;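 also: spheroids exposed to agents for 7 days before the viability read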", "values": [{"measurement": "IC50", "setting": "second compound 0.00316 µM", "value": "> 10", "unit": "µM"}, {"measurement": "IC50", "setting": "second compound 0.01 µM", "value": "> 10", "unit": "µM"}, {"measurement": "IC50", "setting": "second compound 0.0316 µM", "value": "< 0.0316", "unit": "µM"}, {"measurement": "IC50", "setting": "second compound 0.1 µM", "value": "< 0.0316", "unit": "µM"}, {"measurement": "IC50", "setting": "second compound 0.316 µM", "value": "< 0.0316", "unit": "µM"}, {"measurement": "IC50", "setting": "second compound 1 µM", "value": "< 0.0316", "unit": "µM"}, {"measurement": "viability, T/C", "setting": "second compound 0.00316 µM, first compound 0.0316 µM", "value": 72.6, "unit": "%"}, {"measurement": "viability, T/C", "setting": "second compound 0.00316 µM, first compound 0.1 µM", "value": 79.7, "unit": "%"}, {"measurement": "viability, T/C", "setting": "second compound 0.00316 µM, first compound 0.316 µM", "value": 85.4, "unit": "%"}, {"measurement": "viability, T/C", "setting": "second compound 0.00316 µM, first compound 1 µM", "value": 87.3, "unit": "%"}, {"measurement": "viability, T/C", "setting": "second compound 0.00316 µM, first compound 3.16 µM", "value": 98.2, "unit": "%"}, {"measurement": "viability, T/C", "setting": "second compound 0.00316 µM, first compound 10 µM", "value": 71.9, "unit": "%"}, {"measurement": "viability, T/C", "setting": "second compound 0.01 µM, first compound 0.0316 µM", "value": 61.9, "unit": "%"}, {"measurement": "viability, T/C", "setting": "second compound 0.01 µM, first compound 0.1 µM", "value": 68.4, "unit": "%"}, {"measurement": "viability, T/C", "setting": "second compound 0.01 µM, first compound 0.316 µM", "value": 64.3, "unit": "%"}, {"measurement": "viability, T/C", "setting": "second compound 0.01 µM, first compound 1 µM", "value": 63.4, "unit": "%"}, {"measurement": "viability, T/C", "setting": "second compound 0.01 µM, first compound 3.16 µM", "value": 73.6, "unit": "%"}, {"measurement": "viability, T/C", "setting": "second compound 0.01 µM, first compound 10 µM", "value": 65.6, "unit": "%"}, {"measurement": "viability, T/C", "setting": "second compound 0.0316 µM, first compound 0.0316 µM", "value": 29.5, "unit": "%"}, {"measurement": "viability, T/C", "setting": "second compound 0.0316 µM, first compound 0.1 µM", "value": 39, "unit": "%"}, {"measurement": "viability, T/C", "setting": "second compound 0.0316 µM, first compound 0.316 µM", "value": 47.5, "unit": "%"}, {"measurement": "viability, T/C", "setting": "second compound 0.0316 µM, first compound 1 µM", "value": 37.7, "unit": "%"}, {"measurement": "viability, T/C", "setting": "second compound 0.0316 µM, first compound 3.16 µM", "value": 35.9, "unit": "%"}, {"measurement": "viability, T/C", "setting": "second compound 0.0316 µM, first compound 10 µM", "value": 29, "unit": "%"}, {"measurement": "viability, T/C", "setting": "second compound 0.1 µM, first compound 0.0316 µM", "value": 16.3, "unit": "%"}, {"measurement": "viability, T/C", "setting": "second compound 0.1 µM, first compound 0.1 µM", "value": 15.1, "unit": "%"}, {"measurement": "viability, T/C", "setting": "second compound 0.1 µM, first compound 0.316 µM", "value": 19, "unit": "%"}, {"measurement": "viability, T/C", "setting": "second compound 0.1 µM, first compound 1 µM", "value": 17.3, "unit": "%"}, {"measurement": "viability, T/C", "setting": "second compound 0.1 µM, first compound 3.16 µM", "value": 16.9, "unit": "%"}, {"measurement": "viability, T/C", "setting": "second compound 0.1 µM, first compound 10 µM", "value": 11.9, "unit": "%"}, {"measurement": "viability, T/C", "setting": "second compound 0.316 µM, first compound 0.0316 µM", "value": 10.4, "unit": "%"}, {"measurement": "viability, T/C", "setting": "second compound 0.316 µM, first compound 0.1 µM", "value": 5.99, "unit": "%"}, {"measurement": "viability, T/C", "setting": "second compound 0.316 µM, first compound 0.316 µM", "value": 4.55, "unit": "%"}, {"measurement": "viability, T/C", "setting": "second compound 0.316 µM, first compound 1 µM", "value": 5.36, "unit": "%"}, {"measurement": "viability, T/C", "setting": "second compound 0.316 µM, first compound 3.16 µM", "value": 5.23, "unit": "%"}, {"measurement": "viability, T/C", "setting": "second compound 0.316 µM, first compound 10 µM", "value": 4.37, "unit": "%"}, {"measurement": "viability, T/C", "setting": "second compound 1 µM, first compound 0.0316 µM", "value": 3.25, "unit": "%"}, {"measurement": "viability, T/C", "setting": "second compound 1 µM, first compound 0.1 µM", "value": 3.07, "unit": "%"}, {"measurement": "viability, T/C", "setting": "second compound 1 µM, first compound 0.316 µM", "value": 2.92, "unit": "%"}, {"measurement": "viability, T/C", "setting": "second compound 1 µM, first compound 1 µM", "value": 3.17, "unit": "%"}, {"measurement": "viability, T/C", "setting": "second compound 1 µM, first compound 3.16 µM", "value": 4.14, "unit": "%"}, {"measurement": "viability, T/C", "setting": "second compound 1 µM, first compound 10 µM", "value": 3.08, "unit": "%"}]}, {"compound": "Cn1cnc2c(F)c(Nc3ccc(Br)cc3Cl)c(C(=O)NOCCO)cc21", "note": "+ COc1c(OCCCN2CCOCC2)ccc2c3n(c(=NC(=O)c4cnc(N)nc4)nc12)CCN3", "values": [{"measurement": "IC50", "setting": "second compound 0.00316 µM", "value": 0.0236, "unit": "µM"}, {"measurement": "IC50", "setting": "second compound 0.01 µM", "value": "< 0.00949", "unit": "µM"}, {"measurement": "IC50", "setting": "second compound 0.0316 µM", "value": "< 0.00949", "unit": "µM"}, {"measurement": "IC50", "setting": "second compound 0.1 µM", "value": "< 0.00949", "unit": "µM"}, {"measurement": "IC50", "setting": "second compound 0.316 µM", "value": "< 0.00949", "unit": "µM"}, {"measurement": "IC50", "setting": "second compound 1 µM", "value": "< 0.00949", "unit": "µM"}, {"measurement": "viability, T/C", "setting": "second compound 0.00316 µM, first compound 0.00949 µM", "value": 59.8, "unit": "%"}, {"measurement": "viability, T/C", "setting": "second compound 0.00316 µM, first compound 0.03 µM", "value": 43.9, "unit": "%"}, {"measurement": "viability, T/C", "setting": "second compound 0.00316 µM, first compound 0.0949 µM", "value": 37.1, "unit": "%"}, {"measurement": "viability, T/C", "setting": "second compound 0.00316 µM, first compound 0.3 µM", "value": 39.7, "unit": "%"}, {"measurement": "viability, T/C", "setting": "second compound 0.00316 µM, first compound 0.949 µM", "value": 22.8, "unit": "%"}, {"measurement": "viability, T/C", "setting": "second compound 0.00316 µM, first compound 3 µM", "value": 18.9, "unit": "%"}, {"measurement": "viability, T/C", "setting": "second compound 0.01 µM, first compound 0.00949 µM", "value": 44.2, "unit": "%"}, {"measurement": "viability, T/C", "setting": "second compound 0.01 µM, first compound 0.03 µM", "value": 42.5, "unit": "%"}, {"measurement": "viability, T/C", "setting": "second compound 0.01 µM, first compound 0.0949 µM", "value": 27, "unit": "%"}, {"measurement": "viability, T/C", "setting": "second compound 0.01 µM, first compound 0.3 µM", "value": 21.2, "unit": "%"}, {"measurement": "viability, T/C", "setting": "second compound 0.01 µM, first compound 0.949 µM", "value": 22.8, "unit": "%"}, {"measurement": "viability, T/C", "setting": "second compound 0.01 µM, first compound 3 µM", "value": 15.2, "unit": "%"}, {"measurement": "viability, T/C", "setting": "second compound 0.0316 µM, first compound 0.00949 µM", "value": 23.1, "unit": "%"}, {"measurement": "viability, T/C", "setting": "second compound 0.0316 µM, first compound 0.03 µM", "value": 20.8, "unit": "%"}, {"measurement": "viability, T/C", "setting": "second compound 0.0316 µM, first compound 0.0949 µM", "value": 16.4, "unit": "%"}, {"measurement": "viability, T/C", "setting": "second compound 0.0316 µM, first compound 0.3 µM", "value": 14.1, "unit": "%"}, {"measurement": "viability, T/C", "setting": "second compound 0.0316 µM, first compound 0.949 µM", "value": 11.8, "unit": "%"}, {"measurement": "viability, T/C", "setting": "second compound 0.0316 µM, first compound 3 µM", "value": 7.94, "unit": "%"}, {"measurement": "viability, T/C", "setting": "second compound 0.1 µM, first compound 0.00949 µM", "value": 9.95, "unit": "%"}, {"measurement": "viability, T/C", "setting": "second compound 0.1 µM, first compound 0.03 µM", "value": 7.44, "unit": "%"}, {"measurement": "viability, T/C", "setting": "second compound 0.1 µM, first compound 0.0949 µM", "value": 5.9, "unit": "%"}, {"measurement": "viability, T/C", "setting": "second compound 0.1 µM, first compound 0.3 µM", "value": 4.34, "unit": "%"}, {"measurement": "viability, T/C", "setting": "second compound 0.1 µM, first compound 0.949 µM", "value": 3.93, "unit": "%"}, {"measurement": "viability, T/C", "setting": "second compound 0.1 µM, first compound 3 µM", "value": 2.03, "unit": "%"}, {"measurement": "viability, T/C", "setting": "second compound 0.316 µM, first compound 0.00949 µM", "value": 3.44, "unit": "%"}, {"measurement": "viability, T/C", "setting": "second compound 0.316 µM, first compound 0.03 µM", "value": 2.07, "unit": "%"}, {"measurement": "viability, T/C", "setting": "second compound 0.316 µM, first compound 0.0949 µM", "value": 1.3, "unit": "%"}, {"measurement": "viability, T/C", "setting": "second compound 0.316 µM, first compound 0.3 µM", "value": 1.34, "unit": "%"}, {"measurement": "viability, T/C", "setting": "second compound 0.316 µM, first compound 0.949 µM", "value": 0.72, "unit": "%"}, {"measurement": "viability, T/C", "setting": "second compound 0.316 µM, first compound 3 µM", "value": 0.47, "unit": "%"}, {"measurement": "viability, T/C", "setting": "second compound 1 µM, first compound 0.00949 µM", "value": 1.2, "unit": "%"}, {"measurement": "viability, T/C", "setting": "second compound 1 µM, first compound 0.03 µM", "value": 0.53, "unit": "%"}, {"measurement": "viability, T/C", "setting": "second compound 1 µM, first compound 0.0949 µM", "value": 0.38, "unit": "%"}, {"measurement": "viability, T/C", "setting": "second compound 1 µM, first compound 0.3 µM", "value": 0.39, "unit": "%"}, {"measurement": "viability, T/C", "setting": "second compound 1 µM, first compound 0.949 µM", "value": 0.18, "unit": "%"}, {"measurement": "viability, T/C", "setting": "second compound 1 µM, first compound 3 µM", "value": 0.21, "unit": "%"}]}]}
